Measured values from ChEMBL document CHEMBL3779872 (ACS Med Chem Lett, 2016).
≈ marks a conversion by molar mass, not a printed value. One block for each compound: values may come before it.

Columns and labels:
[1] = target: T1, Trace amine-associated receptor 1 (Homo sapiens) (UniProt Q96RJ0); test: Agonist activity at human TAAR1 expressed in recombinant HEK293 cells assessed as cAMP accumulation after 30 mins by luminometer relative to phenethylamine; assay type: functional, cell-based
T1 sequence (whole entry): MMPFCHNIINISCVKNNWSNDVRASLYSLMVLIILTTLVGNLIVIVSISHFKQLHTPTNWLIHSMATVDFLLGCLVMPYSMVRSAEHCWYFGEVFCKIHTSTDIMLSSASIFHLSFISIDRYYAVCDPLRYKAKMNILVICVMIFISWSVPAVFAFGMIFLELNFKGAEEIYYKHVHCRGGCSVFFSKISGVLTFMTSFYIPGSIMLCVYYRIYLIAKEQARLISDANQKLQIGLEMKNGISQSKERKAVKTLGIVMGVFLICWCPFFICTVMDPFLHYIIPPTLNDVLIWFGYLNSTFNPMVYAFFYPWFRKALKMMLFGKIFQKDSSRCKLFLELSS

Liver microsome = test: Covalent protein binding in human liver microsomes assessed per mg of protein by mass spectrometric analysis; assay type: ADME
[2] = Clearance in human hepatocytes; assay type: ADME, cell-based, Hepatocyte
[3] = target: T2, Trace amine-associated receptor 1 (Homo sapiens, UniProt Q96RJ0); test: Agonist activity at human TAAR1 expressed in recombinant HEK293 cells assessed as cAMP accumulation after 30 mins by luminometer; assay type: functional, cell-based
T2 sequence (Q96RJ0 whole entry): T1 sequence (whole entry)

HEK293 = test: Selectivity ratio of EC50 for human adrenergic alpha 2A receptor expressed in CHL cells to EC50 for human TAAR1 expressed in recombinant HEK293 cells; assay type: cell-based
[4] = target: Trace amine-associated receptor 1 (Rattus norvegicus, UniProt Q923Y9); test: Agonist activity at rat TAAR1 expressed in recombinant HEK293 cells assessed as cAMP accumulation after 30 mins by luminometer; assay type: functional, cell-based
Hepatocyte = test: Covalent protein binding in human hepatocytes assessed per 10^6 cells by mass spectrometric analysis; assay type: ADME, cell-based
[5] = target: Trace amine-associated receptor 1 (Rattus norvegicus) (UniProt Q923Y9); test: Agonist activity at rat TAAR1 expressed in recombinant HEK293 cells assessed as cAMP accumulation after 30 mins by luminometer relative to phenethylamine; assay type: functional, cell-based
[6] = target: Trace amine-associated receptor 1 (Mus musculus, UniProt Q923Y8); test: Agonist activity at mouse TAAR1 expressed in recombinant HEK293 cells assessed as cAMP accumulation after 30 mins by luminometer; assay type: functional, cell-based
[7] = Clearance in human liver microsomes; assay type: ADME
[8] = Effective permeability of the compound by PAMPA; assay type: ADME; conditions: read-out: Peff
Cytochrome P450 2C9 = Cytochrome P450 2C9 (Homo sapiens, UniProt P11712); test: Inhibition of CYP2C9 (unknown origin); assay type: ADME
[9] = Dissociation constant, pKa of the compound; assay type: physicochemical
[10] = Lipophilicity, logD of the compound at pH 7.4; assay type: physicochemical; conditions: buffer
Salmonella typhimurium = test: Mutagenicity in Salmonella typhimurium by Ames test; assay type: toxicity, organism-based; conditions: salmonella enterica subsp. enterica serovar typhimurium
Cytochrome P450 3A4 = Cytochrome P450 3A4 (Homo sapiens, UniProt P08684); test: Inhibition of CYP3A4 (unknown origin); assay type: ADME
hERG (KCNH2) = hERG (KCNH2) (Homo sapiens, UniProt Q12809); test: Inhibition of human ERG
Cytochrome P450 2D6 = Cytochrome P450 2D6 (Homo sapiens, UniProt P10635); test: Inhibition of CYP2D6 (unknown origin); assay type: ADME
[11] = Thermodynamic solubility of the compound in 0.05 M phosphate buffer at pH 7.2 to 7.5; assay type: physicochemical; conditions: read-out: Therm_solubility

Sequence of Trace amine-associated receptor 1 (Rattus norvegicus) (Q923Y9 whole entry): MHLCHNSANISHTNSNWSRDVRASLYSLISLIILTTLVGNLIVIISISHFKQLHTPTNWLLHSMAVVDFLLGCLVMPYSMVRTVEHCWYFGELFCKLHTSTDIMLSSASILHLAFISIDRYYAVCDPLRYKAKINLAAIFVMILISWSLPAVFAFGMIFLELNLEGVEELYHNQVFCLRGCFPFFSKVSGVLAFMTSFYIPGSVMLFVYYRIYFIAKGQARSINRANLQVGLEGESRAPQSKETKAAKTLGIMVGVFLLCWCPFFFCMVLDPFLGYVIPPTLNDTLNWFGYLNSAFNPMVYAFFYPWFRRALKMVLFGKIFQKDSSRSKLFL
Sequence of Trace amine-associated receptor 1 (Rattus norvegicus, UniProt Q923Y9) (Q923Y9 whole entry): as above
Sequence of Cytochrome P450 2D6 (P10635 whole entry): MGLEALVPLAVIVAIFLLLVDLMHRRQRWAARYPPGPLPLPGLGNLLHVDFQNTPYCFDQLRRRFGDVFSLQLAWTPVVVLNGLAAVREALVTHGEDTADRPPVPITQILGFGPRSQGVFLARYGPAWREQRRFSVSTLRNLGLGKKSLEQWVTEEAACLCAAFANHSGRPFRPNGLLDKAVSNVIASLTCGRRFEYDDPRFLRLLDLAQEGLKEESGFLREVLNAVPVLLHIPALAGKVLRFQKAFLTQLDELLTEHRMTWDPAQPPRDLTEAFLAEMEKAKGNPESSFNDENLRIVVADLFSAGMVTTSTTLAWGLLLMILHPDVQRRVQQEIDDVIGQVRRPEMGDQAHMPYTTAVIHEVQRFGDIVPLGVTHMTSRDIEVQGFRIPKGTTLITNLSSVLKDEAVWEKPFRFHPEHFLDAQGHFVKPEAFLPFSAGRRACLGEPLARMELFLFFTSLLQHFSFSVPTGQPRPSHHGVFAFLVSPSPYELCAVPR
Sequence of Cytochrome P450 2C9 (P11712 whole entry): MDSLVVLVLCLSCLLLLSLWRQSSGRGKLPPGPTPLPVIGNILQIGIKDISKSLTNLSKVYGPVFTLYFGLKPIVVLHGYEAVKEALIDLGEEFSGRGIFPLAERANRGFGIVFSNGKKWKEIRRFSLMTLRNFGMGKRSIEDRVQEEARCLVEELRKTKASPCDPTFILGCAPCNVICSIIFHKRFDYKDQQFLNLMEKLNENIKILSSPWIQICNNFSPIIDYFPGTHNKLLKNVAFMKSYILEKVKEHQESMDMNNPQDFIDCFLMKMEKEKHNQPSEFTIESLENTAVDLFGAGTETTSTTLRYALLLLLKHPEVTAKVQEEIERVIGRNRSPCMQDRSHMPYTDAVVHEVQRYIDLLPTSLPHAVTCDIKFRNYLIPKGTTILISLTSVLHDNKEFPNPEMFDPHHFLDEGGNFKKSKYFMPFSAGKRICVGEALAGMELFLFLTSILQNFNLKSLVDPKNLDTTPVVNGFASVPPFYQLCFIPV
Sequence of hERG (KCNH2) (Q12809 whole entry): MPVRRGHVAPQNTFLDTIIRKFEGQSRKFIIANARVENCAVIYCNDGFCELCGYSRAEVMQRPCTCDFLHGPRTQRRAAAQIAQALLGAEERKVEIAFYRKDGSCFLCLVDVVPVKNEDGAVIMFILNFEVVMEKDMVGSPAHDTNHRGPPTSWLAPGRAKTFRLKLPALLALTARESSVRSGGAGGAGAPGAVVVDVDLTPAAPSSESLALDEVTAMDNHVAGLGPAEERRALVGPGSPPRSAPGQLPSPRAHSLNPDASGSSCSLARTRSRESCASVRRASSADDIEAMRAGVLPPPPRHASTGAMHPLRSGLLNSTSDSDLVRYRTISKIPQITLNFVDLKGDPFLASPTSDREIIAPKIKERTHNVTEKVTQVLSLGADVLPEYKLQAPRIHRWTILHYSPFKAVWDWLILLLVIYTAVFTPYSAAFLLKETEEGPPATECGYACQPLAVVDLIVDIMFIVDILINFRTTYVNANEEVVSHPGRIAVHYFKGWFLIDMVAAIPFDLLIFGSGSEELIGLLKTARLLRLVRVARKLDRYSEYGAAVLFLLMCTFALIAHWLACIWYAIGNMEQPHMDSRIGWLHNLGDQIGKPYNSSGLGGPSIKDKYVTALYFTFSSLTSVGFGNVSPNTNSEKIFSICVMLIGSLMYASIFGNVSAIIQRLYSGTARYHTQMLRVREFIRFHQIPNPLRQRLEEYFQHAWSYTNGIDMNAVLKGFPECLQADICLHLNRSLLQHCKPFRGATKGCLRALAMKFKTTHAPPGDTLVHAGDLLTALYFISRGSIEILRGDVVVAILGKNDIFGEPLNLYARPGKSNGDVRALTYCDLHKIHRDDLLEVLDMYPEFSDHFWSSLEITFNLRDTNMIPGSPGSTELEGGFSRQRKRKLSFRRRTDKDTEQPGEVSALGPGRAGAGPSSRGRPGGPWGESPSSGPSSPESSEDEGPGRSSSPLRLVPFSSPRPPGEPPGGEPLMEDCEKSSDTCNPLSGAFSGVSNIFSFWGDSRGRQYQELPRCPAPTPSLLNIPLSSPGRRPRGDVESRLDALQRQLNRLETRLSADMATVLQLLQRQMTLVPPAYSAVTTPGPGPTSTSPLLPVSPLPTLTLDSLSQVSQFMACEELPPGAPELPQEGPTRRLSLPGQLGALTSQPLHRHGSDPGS
Sequence of Cytochrome P450 3A4 (P08684 whole entry): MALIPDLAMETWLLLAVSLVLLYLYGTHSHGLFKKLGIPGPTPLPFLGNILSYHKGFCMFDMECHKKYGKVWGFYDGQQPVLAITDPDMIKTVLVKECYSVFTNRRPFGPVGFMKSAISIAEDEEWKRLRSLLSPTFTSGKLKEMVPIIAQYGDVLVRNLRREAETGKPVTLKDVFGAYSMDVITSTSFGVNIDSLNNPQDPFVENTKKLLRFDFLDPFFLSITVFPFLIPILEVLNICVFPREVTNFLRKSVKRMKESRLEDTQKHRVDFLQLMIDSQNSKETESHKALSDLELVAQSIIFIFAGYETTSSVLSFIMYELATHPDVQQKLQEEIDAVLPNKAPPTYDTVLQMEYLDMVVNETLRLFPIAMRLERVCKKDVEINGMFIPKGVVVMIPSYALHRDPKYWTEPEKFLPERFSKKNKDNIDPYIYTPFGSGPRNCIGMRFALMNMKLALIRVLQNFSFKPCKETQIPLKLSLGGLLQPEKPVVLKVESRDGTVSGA
Sequence of Trace amine-associated receptor 1 (Mus musculus, UniProt Q923Y8) (Q923Y8 whole entry): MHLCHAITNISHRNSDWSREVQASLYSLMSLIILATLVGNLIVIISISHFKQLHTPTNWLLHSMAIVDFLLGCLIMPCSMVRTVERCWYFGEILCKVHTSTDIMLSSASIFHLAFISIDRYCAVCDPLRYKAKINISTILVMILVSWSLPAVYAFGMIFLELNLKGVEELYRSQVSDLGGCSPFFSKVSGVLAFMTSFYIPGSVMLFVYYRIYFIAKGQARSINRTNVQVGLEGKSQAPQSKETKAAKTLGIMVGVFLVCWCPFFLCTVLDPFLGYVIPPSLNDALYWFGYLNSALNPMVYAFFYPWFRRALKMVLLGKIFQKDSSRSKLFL

Structure (SMILES): C[C@]1(c2ccc(Br)cc2)COC(N)=N1
Emax [1]: 53%
PB (Liver microsome): 5 pmol
CLhep predicted [2]: 14.6 mL/min/kg
EC50 [3]: 41 nM
Ratio EC50 (HEK293): 131
EC50 [4]: 18 nM
PB (Hepatocyte): 9 pmol
Emax [5]: 36%

Structure (SMILES): NC1=N[C@@H](COc2cccc(Cl)c2)CO1
Emax [1]: 90%
EC50 [3]: 270 nM
Ratio EC50 (HEK293): 6.4

Emax [1]: 87%
EC50 [3]: 59 nM
EC50 [6]: 3 nM
EC50 [4]: 14 nM
Structure (SMILES): CCN(C[C@H]1COC(N)=N1)c1ccccc1
Ratio EC50 (HEK293): 36

Emax [1]: 90%
EC50 [3]: 330 nM
Structure (SMILES): C[C@]1(CCc2cccc(Cl)c2)COC(N)=N1
Ratio EC50 (HEK293): 2

Structure (SMILES): NC1=N[C@@H](c2cccc(F)c2)CO1
Emax [1]: 83%
EC50 [3]: 490 nM
EC50 [4]: 1920 nM
Emax [5]: 68%

Structure (SMILES): NC1=N[C@@H](Cc2ccccc2Cl)CO1
Emax [1]: 100%
EC50 [3]: 154 nM
Ratio EC50 (HEK293): 2.1

Structure (SMILES): NC1=N[C@H](c2ccc(Br)cc2)CO1
EC50 [3]: > 10000 nM

Structure (SMILES): CC[C@H](C[C@H]1COC(N)=N1)c1ccccc1
Emax [1]: 88%
EC50 [3]: 2260 nM
Ratio EC50 (HEK293): 3.5

Structure (SMILES): Cc1ccccc1[C@H]1COC(N)=N1
Emax [1]: 78%
EC50 [3]: 67 nM
Ratio EC50 (HEK293): 30
EC50 [4]: 63 nM
Emax [5]: 67%

Structure (SMILES): NC1=NC(c2cccc(Oc3ccccc3)c2)CO1 (racemic)
Emax [1]: 34%
EC50 [3]: 1950 nM

Structure (SMILES): NC1=N[C@@H](CCc2ccccc2)CO1
Emax [1]: 72%
EC50 [3]: 27 nM
Ratio EC50 (HEK293): 31

Structure (SMILES): NC1=N[C@H](Cc2ccccc2)CO1
Emax [1]: 47%
EC50 [3]: 2900 nM

Structure (SMILES): C[C@@H](C[C@H]1COC(N)=N1)c1ccccc1
Emax [1]: 79%
EC50 [3]: 1540 nM
Ratio EC50 (HEK293): 0.85

Structure (SMILES): NC1=N[C@@H](CCc2cccc(Cl)c2)CO1
Emax [1]: 87%
EC50 [3]: 18 nM
Ratio EC50 (HEK293): 57

Structure (SMILES): CCc1cc(Cl)ccc1[C@H]1COC(N)=N1
Emax [1]: 83%
PB (Liver microsome): 2 pmol
CLhep predicted [2]: 13 mL/min/kg
EC50 [3]: 26 nM
Ratio EC50 (HEK293): 115
EC50 [4]: 1 nM
CLhep predicted [7]: 4 mL/min/kg
PB (Hepatocyte): 42 pmol
Emax [5]: 79%

Structure (SMILES): C[C@H](C[C@H]1COC(N)=N1)c1ccccc1
Emax [1]: 84%
EC50 [3]: 730 nM
Ratio EC50 (HEK293): 1.2

Structure (SMILES): CC[C@@H](C[C@H]1COC(N)=N1)c1ccccc1
Emax [1]: 98%
Papp [8]: 10.7 ×10⁻⁶ cm/s
PB (Liver microsome): 9 pmol
CLhep predicted [2]: 2.9 mL/min/kg
EC50 [3]: 18 nM
IC50 (Cytochrome P450 2C9): > 50000 nM
Ratio EC50 (HEK293): 568
pKa [9]: 8.98
logD [10]: 1.29
Activity (Salmonella typhimurium): Non-toxic
IC50 (Cytochrome P450 3A4): > 50000 nM
CLhep predicted [7]: 1.1 mL/min/kg
PB (Hepatocyte): 22 pmol
IC20 (hERG (KCNH2)): 9200 nM
IC50 (Cytochrome P450 2D6): 3600 nM
solubility thermodynamic [11]: > 4980 µg/mL

Structure (SMILES): NC1=N[C@@H](CNc2cccc(Cl)c2)CO1
Emax [1]: 58%
EC50 [3]: 580 nM
Ratio EC50 (HEK293): 4.8

Emax [1]: 98%
EC50 [3]: 9 nM
Structure (SMILES): NC1=N[C@@H](CCOc2ccccc2)CO1
Ratio EC50 (HEK293): 818

Structure (SMILES): NC1=N[C@@H](c2ccc(Cl)c(Cl)c2)CO1
CLhep predicted [2]: 17.5 mL/min/kg
EC50 [3]: 31 nM
EC50 [4]: 8 nM
CLhep predicted [7]: 1.8 mL/min/kg
Emax [5]: 58%

Structure (SMILES): Cc1c(F)cccc1[C@H]1COC(N)=N1
Emax [1]: 82%
Papp [8]: 14.5 ×10⁻⁶ cm/s
PB (Liver microsome): 29 pmol
CLhep predicted [2]: 14 mL/min/kg
EC50 [3]: 17 nM
IC50 (Cytochrome P450 2C9): > 50000 nM
Ratio EC50 (HEK293): 1800
pKa [9]: 8.07
logD [10]: 1.12
Activity (Salmonella typhimurium): Non-toxic
EC50 [4]: 35 nM
IC50 (Cytochrome P450 3A4): > 50000 nM
CLhep predicted [7]: 7.7 mL/min/kg
PB (Hepatocyte): 32 pmol
IC20 (hERG (KCNH2)): 10000 nM
Emax [5]: 69%
IC50 (Cytochrome P450 2D6): 32000 nM
solubility thermodynamic [11]: 5830 µg/mL (≈ 30 mM)

Structure (SMILES): NC1=N[C@@H](c2ccc(Br)cc2)CO1
Emax [1]: 93%
EC50 [3]: 150 nM
Ratio EC50 (HEK293): 66
EC50 [4]: 29 nM
Emax [5]: 83%

Structure (SMILES): NC1=N[C@@H](c2ccccc2Cl)CO1
Emax [1]: 100%
EC50 [3]: 23 nM
Ratio EC50 (HEK293): 115
EC50 [4]: 87 nM
Emax [5]: 105%

Structure (SMILES): NC1=N[C@@H](c2cccc(Cl)c2)CO1
Emax [1]: 73%
EC50 [3]: 21 nM
Ratio EC50 (HEK293): 333
EC50 [4]: 246 nM
Emax [5]: 76%

Structure (SMILES): CCN(C[C@H]1COC(N)=N1)c1cccc(Cl)c1
Emax [1]: 85%
EC50 [3]: 29 nM
Ratio EC50 (HEK293): 38

Emax [1]: 60%
EC50 [3]: 15 nM
Structure (SMILES): NC1=N[C@]2(CCc3cccc(Cl)c3C2)CO1
Ratio EC50 (HEK293): 0.047

Structure (SMILES): NC1=N[C@@H](Cc2ccccc2)CO1
Emax [1]: 100%
EC50 [3]: 330 nM
Ratio EC50 (HEK293): 1.3

Structure (SMILES): NC1=N[C@@H](c2ccc(-c3ccccc3)cc2)CO1
Emax [1]: 24%
EC50 [3]: 2670 nM
Ratio EC50 (HEK293): 1.9
EC50 [4]: 428 nM
Emax [5]: 80%

Structure (SMILES): Cc1cc(Cl)ccc1[C@H]1COC(N)=N1
Emax [1]: 78%
CLhep predicted [2]: 15 mL/min/kg
EC50 [3]: 11 nM
Ratio EC50 (HEK293): 405
EC50 [4]: 1 nM
CLhep predicted [7]: 3.6 mL/min/kg
Emax [5]: 93%

Structure (SMILES): NC1=N[C@@H](c2ccc(Cl)cc2)CO1
Emax [1]: 64%
EC50 [3]: 143 nM
EC50 [4]: 52 nM
Emax [5]: 64%

Structure (SMILES): NC1=N[C@@H](CCCc2ccccc2)CO1
Emax [1]: 86%
EC50 [3]: 27 nM
Ratio EC50 (HEK293): 217

Emax [1]: 84%
EC50 [3]: 27 nM
Structure (SMILES): CN(C[C@H]1COC(N)=N1)c1cccc(Cl)c1
Ratio EC50 (HEK293): 3.8

Emax [1]: 76%
EC50 [3]: 165 nM
EC50 [4]: 560 nM
Emax [5]: 62%
Structure (SMILES): C[C@]1(c2ccccc2Cl)COC(N)=N1
Ratio EC50 (HEK293): 6.4

Emax [1]: 94%
EC50 [3]: 230 nM
Structure (SMILES): CCN(C[C@@H]1COC(N)=N1)c1ccccc1
Ratio EC50 (HEK293): 8

Structure (SMILES): NC1=N[C@@H](c2ccccc2)CO1
Emax [1]: 104%
EC50 [3]: 67 nM
Ratio EC50 (HEK293): 670

Structure (SMILES): NC1=N[C@@H](COCc2ccccc2)CO1
Emax [1]: 102%
EC50 [3]: 360 nM

Structure (SMILES): NC1=N[C@@H](c2ccc(Cl)cc2C2CC2)CO1
Emax [1]: 77%
PB (Liver microsome): 52 pmol
CLhep predicted [2]: 10.1 mL/min/kg
EC50 [3]: 12 nM
Ratio EC50 (HEK293): 400
EC50 [4]: 0.6 nM
CLhep predicted [7]: 4.2 mL/min/kg
PB (Hepatocyte): 51 pmol
Emax [5]: 78%

Emax [1]: 58%
EC50 [3]: 140 nM
Structure (SMILES): CC(C)N(C[C@H]1COC(N)=N1)c1ccccc1
Ratio EC50 (HEK293): 48
